Reference: US20110028447A1, “INDAZOLE DERIVATIVES” (Pfizer Inc., priority 2008, published 2011)

The molecules below were run against human CB1 receptor (Homo sapiens, UniProt P21554) (assay: Human CB1 receptor binding, [3H] CP-55,940 displacement on HEK cell membranes). Details: CB1 Ki.
Set-up: expressed in transfected cells; host or cells: HEK cells, doxycycline-induced; membrane preparation
In short: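 Radioligand displacement: [3H] CP-55,940 at […] final, 1 μg membrane protein per well from HEK cells with tetracycline-inducible human CB1, 60 min at room temperature, pH 7.4 Tris/NaCl/MgCl2/EGTA/BSA buffer. 50 μM WIN-55,212-2 set nonspecific binding; bound label filtered, counted, and fitted for EC50 and Ki values.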

Sequence of human CB1 receptor (P21554 whole entry): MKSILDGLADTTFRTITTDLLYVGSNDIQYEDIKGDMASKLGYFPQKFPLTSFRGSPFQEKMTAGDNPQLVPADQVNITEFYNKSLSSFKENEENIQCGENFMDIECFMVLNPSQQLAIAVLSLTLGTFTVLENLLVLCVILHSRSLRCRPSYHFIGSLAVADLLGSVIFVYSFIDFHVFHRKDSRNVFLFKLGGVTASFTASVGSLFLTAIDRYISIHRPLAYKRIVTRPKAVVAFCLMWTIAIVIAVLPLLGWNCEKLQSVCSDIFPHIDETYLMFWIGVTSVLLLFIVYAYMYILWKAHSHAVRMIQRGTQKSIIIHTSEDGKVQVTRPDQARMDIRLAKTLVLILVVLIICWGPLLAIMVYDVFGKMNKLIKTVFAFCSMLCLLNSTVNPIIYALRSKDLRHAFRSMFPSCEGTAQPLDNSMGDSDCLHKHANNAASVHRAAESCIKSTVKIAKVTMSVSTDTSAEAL

SMILES	Ki
CC(C)(C)[C@H](NC(=O)c1nn(Cc2ccc(F)cc2)c2ccccc12)C(=O)N[C@H]1CNC(=O)C1 [Example 455]	33.6 nM
CC(C)(C)[C@H](NC(=O)c1nn(Cc2ccc(F)cc2)c2ccccc12)C(=O)N1CCC[C@@H]1C(N)=O [Example 319]	45.8 nM
CN1CCN=C1CNC(=O)[C@@H](NC(=O)c1nn(Cc2ccc(F)cc2)c2ccccc12)C(C)(C)C [Example 304]	152 nM
CC(C)(C)[C@H](NC(=O)c1nn(Cc2ccc(C#N)cc2F)c2c(F)c(F)ccc12)C(=O)NCCS(N)(=O)=O [Example 363]	57.8 nM
CC(C)(C)[C@H](NC(=O)c1nn(Cc2ccc(F)cc2)c2ccc(Cl)cc12)C(=O)NCC1CC1 [Example 439]	3.26 nM
COc1cc(C#N)ccc1Cn1nc(C(=O)N[C@@H](C(N)=O)C(C)(C)C)c2ccccc21 [Example 394]	> 400 nM
CC(C)(C)[C@H](NC(=O)c1nn(Cc2ccc(C#N)cc2)c2ccc(Cl)cc12)C(=O)NC[C@@H](O)CO [Example 445]	> 400 nM
CC(C)(C)[C@H](NC(=O)c1nn(Cc2ccc(C#N)cc2)c2ccccc12)C(=O)N1CC(C(N)=O)C1 [Example 351]	24.3 nM
CC(C)(C)[C@H](NC(=O)c1nn(Cc2ccc(F)cc2)c2ccccc12)C(=O)N[C@H]1CCC[C@@H]1O [Example 279]	54.1 nM
COc1cc(C#N)ccc1Cn1nc(C(=O)N[C@H](C(=O)NCCS(N)(=O)=O)C(C)(C)C)c2ccccc21 [Example 390]	> 400 nM
COc1cc(C#N)ccc1Cn1nc(C(=O)N[C@H](C(=O)NC2CC2)C(C)(C)C)c2ccccc21 [Example 393]	> 400 nM
CC(C)(C)[C@H](NC(=O)c1nn(Cc2ccc(C#N)cc2)c2ccccc12)C(=O)N[C@@H]1CNC(=O)C1 [Example 456]	43.8 nM
CC(C)(C)[C@H](NC(=O)c1nn(Cc2ccc(C#N)cc2F)c2c(F)c(F)ccc12)C(=O)NCC(N)=O [Example 359]	47.2 nM
COc1cc(C#N)ccc1Cn1nc(C(=O)N[C@H](C(=O)NC[C@H](O)CO)C(C)(C)C)c2ccccc21 [Example 387]	> 400 nM
CC(C)(C)[C@@H](NC(=O)c1nn(Cc2ccc(C#N)cc2)c2ccccc12)C(N)=O [Example 383]	> 400 nM
CC(C)(C)[C@H](NC(=O)c1nn(Cc2ccc(C#N)cc2)c2ccc(Cl)cc12)C(=O)NC1CC1 [Example 446]	168 nM
CC(C)(C)[C@H](NC(=O)c1nn(Cc2ccc(C#N)cc2)c2ccccc12)C(=O)NO [Example 412]	> 400 nM
COc1cc(C#N)ccc1Cn1nc(C(=O)N[C@H](C(=O)NCC(N)=O)C(C)(C)C)c2ccccc21 [Example 388]	> 400 nM
CC(C)(C)[C@H](NC(=O)c1nn(Cc2ccc(C#N)cc2)c2cc(F)ccc12)C(=O)NC(CO)CO [Example 296]	64.1 nM

SMILES	Ki
CC(C)(C)[C@H](NC(=O)c1nn(Cc2ccc(C#N)cc2)c2c(F)cccc12)C(=O)NCCS(C)(=O)=O [Example 221]	87.5 nM
CC(C)(C)[C@H](NC(=O)c1nn(Cc2ccc(C(F)(F)F)cc2)c2ccccc12)C(=O)NCC(N)=O [Example 259]	132 nM
CC(C)(C)[C@H](NC(=O)c1nn(Cc2ccc(C#N)cc2)c2c(F)cccc12)C(=O)NC[C@H]1C[C@@H]1CO [Example 486]	43.9 nM
CC(C)(C)[C@H](NC(=O)c1nn(Cc2ccc(C#N)cc2)c2ccccc12)C(=O)NCC1CC1 [Example 407]	36.2 nM
CC(C)(C)[C@H](NC(=O)c1nn(Cc2ccc(F)cc2)c2ccc(Cl)cc12)C(=O)NCC(N)=O [Example 430]	18.2 nM
CC(C)(C)[C@H](NC(=O)c1nn(Cc2ccc(C#N)cc2)c2ccccc12)C(=O)NCc1nn[nH]n1 [Example 217]	> 400 nM
CC(C)(C)[C@H](NC(=O)c1nn(Cc2ccc(C(F)(F)F)cc2)c2ccccc12)C(=O)NC[C@@H](O)CO [Example 260]	> 400 nM
CC(C)(C)[C@H](NC(=O)c1nn(Cc2ccc(C#N)cc2F)c2ccccc12)C(=O)NCCC(N)=O [Example 471]	> 400 nM
CC(C)(C)[C@H](NC(=O)c1nn(Cc2ccc(C#N)cc2)c2c(F)cccc12)C(=O)N[C@H]1CNC(=O)C1 [Example 453]	> 400 nM
CC(C)(C)[C@H](NC(=O)c1nn(Cc2cccc3ccccc23)c2ccccc12)C(=O)NC1CC1 [Example 273]	> 400 nM
CC(C)(C)[C@H](NC(=O)c1nn(Cc2ccc(C(F)(F)F)cc2)c2ccccc12)C(=O)NCCS(C)(=O)=O [Example 258]	> 400 nM
CC(C)(C)[C@H](NC(=O)c1nn(Cc2ccc(C#N)cc2)c2ccccc12)C(=O)NC[C@@H](O)C(N)=O [Example 283]	> 400 nM
CC(C)(C)[C@H](NC(=O)c1nn(Cc2ccc(C#N)cc2F)c2c(F)c(F)ccc12)C(=O)NC[C@@H](O)CO [Example 360]	73.5 nM
NC(=O)[C@H](Cc1ccccc1)NC(=O)c1nn(Cc2ccc(F)cc2)c2ccccc12 [Example 4, N-α-{[1-(4-fluorobenzyl)-1H-indazol-3-yl]carbonyl}-L-phenylalaninamide]	708 nM
CC(C)(C)[C@H](NC(=O)c1nn(Cc2cccc3ccccc23)c2ccccc12)C(=O)NCC(N)=O [Example 275]	> 400 nM
CC(C)(C)[C@H](NC(=O)c1nn(Cc2ccc(F)cc2)c2ccccc12)C(=O)N[C@@H](CO)C(=O)O [Example 240]	152 nM
CC(C)(C)[C@H](NC(=O)c1nn(Cc2ccc(C#N)cc2)c2cc(F)ccc12)C(=O)N[C@H]1C[C@H](O)C1 [Example 356]	32.6 nM
CC(C)(C)[C@H](NC(=O)c1nn(Cc2ccc(C#N)cc2)c2ccc(Cl)cc12)C(=O)NC1CCC1 [Example 449]	> 400 nM

Same assay, conditions: read-out: CB1 Ki

SMILES	Ki
CN1CC(CNC(=O)[C@@H](NC(=O)c2nn(Cc3ccc(C#N)cc3)c3ccccc23)C(C)(C)C)CC1=O (stereo partly shown) [Example 408]	> 400 nM
CN1CC(CNC(=O)[C@@H](NC(=O)c2nn(Cc3ccc(C#N)cc3)c3cc(F)ccc23)C(C)(C)C)CC1=O (stereo partly shown) [Example 410]	104 nM
CC(C)(C)[C@H](NC(=O)c1nn(Cc2ccc(C#N)cc2)c2ccccc12)C(=O)NCc1nnc(C(=O)NCCO)o1 [Example 461]	> 400 nM
CC(C)(C)[C@H](NC(=O)c1nn(Cc2ccc(F)cc2)c2ccccc12)C(=O)NCC(=O)N(CCO)CCO [Example 379]	> 400 nM
CC(C)(C)[C@H](NC(=O)c1nn(Cc2ccc(F)cc2F)c2ccccc12)C(=O)NCCN1CCNC(=O)C1 [Example 468]	23.5 nM
CC(C)(C)[C@H](NC(=O)c1nn(Cc2ccc(F)cc2)c2ccccc12)C(=O)NCc1[nH]nc2c1CCC2 [Example 460]	24.6 nM
CC(C)(C)[C@H](NC(=O)c1nn(Cc2ccc(F)cc2)c2ccccc12)C(=O)N1CCCC(C(=O)NC[C@H](O)CO)C1 (stereo partly shown) [Example 278]	68.8 nM
CC(C)(C)[C@H](NC(=O)c1nn(Cc2ccc(F)cc2)c2c(F)cccc12)C(=O)NCCN1CCNC(=O)C1 [Example 474]	41.2 nM
CC(C)(C)[C@H](NC(=O)c1nn(Cc2ccc(F)cc2)c2ccccc12)C(=O)N1CCCC(C(=O)NCCO)C1 (stereo partly shown) [Example 277]	31.7 nM
Cc1cc(O)nc(CNC(=O)[C@@H](NC(=O)c2nn(Cc3ccc(C#N)cc3)c3c(F)cccc23)C(C)(C)C)n1 [Example 349]	101 nM
CC(C)(C)[C@H](NC(=O)c1nn(Cc2ccc(C#N)cc2)c2cc(F)ccc12)C(=O)NCc1nnc(C(=O)NCCO)o1 [Example 463]	274 nM
CC(C)(C)[C@H](NC(=O)c1nn(Cc2ccc(F)cc2)c2c(Cl)cccc12)C(=O)NCc1ccc(C(=O)O)cc1 [Example 426]	90 nM
